Laboratory results from patent US5238838A (Degussa Aktiengesellschaft, priority 1991, dated 1993).
“Also recorded” adds a separate entry of the source.

Assays:
[1] = test system: carnitine amidase (raw extract of strain DSM 6230); assay: Activity test of the raw extract of strain DSM 6230 with enantiomerically pure D- and L-carnitine amide; assay type: biochemical; settings: for Activity (mU/mg) / Activity (mU/ml): raw extract of strain DSM 6230, labelled amide as substrate, 50 mM, 30° C.
Experimental: After 3 days, the contents of the shaking flasks were centrifuged (10 min., 10000 rpms in a refrigerated centrifuge), and the sedimentated cells were taken up in 100 mM potassium phosphate buffer pH 7.5 (an approximately 20% microorganism suspension was produced).
The microorganisms in this suspension must be macerated in the customary manner (e.g. agitation with fine glass beads or ultrasound treatment). The cell maceration was carried out by means of wet grinding with glass beads (diameter 0.3 mm; 2 g beads per 1 ml cell suspension). The glass beads and the coarse cell fragments were centrifuged off by means of centrifugation in a refrigerated centrifuge (5 min. 12000 rpms). The clear supernatant was designated as raw extract and used for further experiments.
The materials for the activity test contained:
400 μl potassium phosphate buffer 0.1 M, pH 7.5
50 μl substrate in 0.1 M potassium phosphate buffer, pH 7.5
50 μl enzyme solution (raw extract)
The following were used as substrates:
a) DL-carnitine amide final concentration in the test 100 mM
b) D-carnitine amide final concentration in the test 50 mM c) L-carnitine amide final concentration in the test 50 mM
The enzyme test was carried out in 1.5 ml Eppendorf vessels at a temperature of 30° C. The reaction was started by the addition of enzyme solution and stopped by acidification. The precipitated protein was centrifuged off (Eppendorf centrifuge 5 min. 12500 rpms) and the supernatant examined. In order to determine the blank reading, a control specimen for the substrate and the enzyme solution was always used.
The definition of the enzyme unit is 1 mU=1 nM converted substrate per minute.
L-carnitine can be determined enzymatically with the carnitine acetyl transferase. The ammonia was determined on the one hand photometrically as indophenol and on the other hand enzymatically with the aid of glutamate dehydrogenase.
The raw extract of this strain was tested with enantiomerically pure D- and L-carnitine amide:
The raw extract was retested for D- and L-carnitine amide and the enzyme test was stopped after 10 min. (there is still sufficient L-carnitine amide in the test batch) and after 5 hours (the L-carnitine amide has reacted to a great extent or completely). The L-amidase activity, relative to the total amidase activity, was 100% after 10 min. and still over 99% after 5 hours.

L-carnitine amidase [2] = assay: Substrate spectrum of L-carnitine amidase; assay type: biochemical, strain DSM 6230; settings: for Rel. activity (%): substrate 50 mM, 30° C., 100 mM potassium phosphate buffer pH 8
Experimental: The enzyme test was carried out at 30° C. in 100 mM potassium phosphate buffer pH 8. The substrate concentration was 50 mM.

L-carnitine amidase [3] = assay: Test for the induction of L-carnitine amidase; assay type: cell-based, strain DSM 6230; settings: for Activity (mU/mg) / Activity (mU/ml): 5 g/l of the substance as inductor, 36 h, L-carnitine amide as substrate; for Induction of L-carnitine amidase (in words): strain DSM 6230
Experimental: (§1) In this test, various substances were examined for their induction action. At the same time, the growth on these compounds was followed. The medium used was a minimum medium with 1.0 g/l instead of 0.5 g/l yeast extract, to which 5 g/l of the substance to be tested were added in each instance. The culture without inductor contained 5 g/l yeast extract. All tests were carried out with 20 ml shaking cultures which were incubated 36 h at 30° C. and 120 rpms in a rotating [round]shaking machine. These cultures were inoculated with 1% of an initial culture of strain DSM 6230. L-carnitine amide was used as substrate for the enzyme test.
(§2) At the same time, the growth of the bacteria was followed in these carnitine amide concentrations. The culture conditions corresponded to those in example 3.

strain DSM 6230 = assay: Growth of strain DSM 6230 on the test substances (OD660); assay type: cell-based; settings: for OD660: 5 g/l of the substance in minimum medium with 1.0 g/l yeast extract, 36 h, 30° C.; for Growth of the strain on the substance (in words): strain DSM 6230
Experimental: 1367 strains were isolated during the screening program. These strains were incubated in 100 ml Erlenmeyer flasks containing 20 ml of the particular enrichment medium in a rotary agitator at 30° C. and 120 rpms. The optical density at 660 nm was taken as an indication for the cell growth.
as §1, §2

[4] = test system: 20% cell suspension of the strain DSM 6230; assay: Conversion with whole cells; assay type: cell-based
Description: The conversion with whole cells was examined by carrying out the customary enzyme test with a 20% cell suspension of the strain DSM 6230. Result: L-carnitine amide is converted by whole cells with 64% greater activity than by a macerated cell suspension of the same concentration. D-carnitine is not converted. It is therefore to be expected that the conversion of L-carnitine amide to L-carnitine can also be carried out very well by means of immobilized microorganisms. […] Suitable microorganism immobilizates are immobilizates based on alginate or chitosan.

| SMILES | Activity (mU/mg) [1] [mU/mg] | Activity (mU/ml) [1] [mU/ml] | Hydrolysis / conversion by L-carnitine amidase (in words) (L-carnitine amidase [2]) | Rel. activity (%) (L-carnitine amidase [2]) | Activity (mU/mg) (L-carnitine amidase [3]) | Activity (mU/ml) (L-carnitine amidase [3]) | OD660 (strain DSM 6230) | Conversion by whole cells (in words) [4] | Induction of L-carnitine amidase (in words) (L-carnitine amidase [3]) | Growth of the strain on the substance (in words) (strain DSM 6230) | Activity of whole cells, greater than that of a macerated cell suspension of the same concentration [4] [%] | L-amidase activity, relative to the total amidase activity ([1]; raw extract, enzyme test stopped after 10 min.) [%] | L-amidase activity, relative to the total amidase activity ([1]; raw extract, enzyme test stopped after 5 hours) | L-amidase activity (%) ([1]; raw extract, relative to total amidase activity) |
| --- | --- | --- | --- | --- | --- | --- | --- | --- | --- | --- | --- | --- | --- | --- |
| C[N+](C)(C)C[C@@H](O)CC(N)=O [D-carnitine amide] | 0 | 0 | does not hydrolyze | 0 | 166 | 497 | 0.8 |  |  |  |  |  |  |  |
| C[N+](C)(C)C[C@@H](O)CC#N [D-carnitine nitrile] |  |  |  | 0 | 90 | 206 | 0.8 |  |  |  |  |  |  |  |
| C[N+](C)(C)C[C@@H](O)CC(=O)[O-] [D-carnitine] |  |  |  |  |  |  |  | not converted |  |  |  |  |  |  |
| NCC(N)=O [Glycine amide] |  |  |  | 0 | 43 | 180 | 1.0 |  | not induced | good growth substrates |  |  |  |  |
| CC(C)C(N)=O [Isobutyramide] |  |  |  | 0 | 41 | 193 | 1.1 |  |  |  |  |  |  |  |
| C[N+](C)(C)C[C@H](O)CC(N)=O [L-carnitine amide] | 1960 | 8624 | hydrolyzes | 100 | 1706 | 8530 | 3.5 |  | induced; also recorded: best of the inductors tested | Good growth | 64 | 100 | over 99% | 100 |
| C[N+](C)(C)C[C@H](O)CC#N [L-carnitine nitrile] |  |  |  | 0 | 65 | 183 | 0.8 |  |  |  |  |  |  |  |
| CC(C)C[C@H](N)C(N)=O [L-leucine amide] |  |  |  | 0 | 9 | 34 | 2.5 |  | not induced | Good growth |  |  |  |  |
| NC(=O)[C@@H](N)Cc1ccccc1 [L-phenylalanine amide] |  |  |  | 0 | 72 | 172 | 0.6 |  |  |  |  |  |  |  |
| NC(=O)[C@@H]1CCCN1 [L-proline amide] |  |  |  | 0 | 54 | 250 | 1.0 |  |  |  |  |  |  |  |
| CC(C)[C@H](N)C(N)=O [L-valine amide] |  |  |  | 0 | 12 | 32 | 0.9 |  |  |  |  |  |  |  |
| CC(O)C(N)=O (stereo not drawn) [Lactic acid amide] |  |  |  | 0 | 28 | 55 | 0.8 |  |  |  |  |  |  |  |
| C=C(C)C(N)=O [Methacrylamide] |  |  |  | 0 | 76 | 237 | 0.8 |  |  |  |  |  |  |  |
| CCC(N)=O [Propionamide] |  |  |  | 0 | 29 | 129 | 1.1 |  |  |  |  |  |  |  |
